Data on two compounds can be found in patent US20180353501A1 (Arvinas, Inc., priority 2017, published 2018).

The target of the test is T1, p38δ:PROTAC:VHL ternary complex (Homo sapiens, UniProt O15264+P40337).
T1 construct: encoding a region spanning amino acids 1-365 was PCR-amplified; His6 (N); made in house; host or cells: E. coli (BL21-CodonPlus(DE3)-RIPL for p38δ; BL21(DE3) for GST-VBC)
Briefly: In vitro ternary complex pull-down with GST-VBC bait, purified p38δ. It is filed as binding. The source says:
FIGS. 15A, 15B, and 15C. Differential p38δ:PROTAC:VHL ternary complex affinities result in distinct cellular ubiquitination outcomes. (A) Both exemplary compound 50 and 46 pull-down p38δ in vitro, however compound 46 maintains ternary complex at lower concentrations. As in FIG. 14A, GST-tagged VBC was used as a bait to trap recombinant p38δ in the presence of vehicle (DMSO) or the indicated concentrations of compound 50 or 46. The rightmost lane represents a 1:25 dilution of initial input protein used in each pull-down. […] GST-VBC was immobilized on glutathione sepharose beads and incubated with MDA-MB-231 whole cell lysate (WCL) in the presence of vehicle (DMSO) or the indicated concentrations of compound 50 or 46. Beads were washed and “trapped” proteins (i.e. those that engage in a ternary complex) were eluted with SDS sample buffer and separated by SDS-PAGE. Samples were assessed by western blot and CUL2 and α-tubulin serve as positive and negative GST-VBC immunoprecipitation controls, respectively. (C) Only exemplary compound 46 ubiquitinates FLAG-p38δ in HeLa cells. As in FIG. 14C, HeLa cells were co-transfected with HA-Ub and FLAG-p38δ and were either treated with vehicle (DMSO) or 1 μM of compound 50 or 1 μM of compound 46 for 2 hours. FLAGimmunoprecipitated lysates were separated by SDS-PAGE and assessed via western blots detecting HA (Ub). […]

T1 sequence (O15264 whole entry, the tested form may be a part): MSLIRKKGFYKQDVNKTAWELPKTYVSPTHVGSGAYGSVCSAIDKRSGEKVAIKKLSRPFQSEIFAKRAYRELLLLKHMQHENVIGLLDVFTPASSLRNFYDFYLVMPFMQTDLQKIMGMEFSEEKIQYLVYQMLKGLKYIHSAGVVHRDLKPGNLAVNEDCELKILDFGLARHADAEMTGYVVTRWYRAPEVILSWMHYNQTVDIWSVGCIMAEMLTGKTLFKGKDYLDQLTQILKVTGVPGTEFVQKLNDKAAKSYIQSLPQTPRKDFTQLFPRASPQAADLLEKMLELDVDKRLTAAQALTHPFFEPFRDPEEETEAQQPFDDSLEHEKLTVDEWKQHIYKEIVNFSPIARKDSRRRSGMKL
T1 sequence (P40337 whole entry, the tested form may be a part): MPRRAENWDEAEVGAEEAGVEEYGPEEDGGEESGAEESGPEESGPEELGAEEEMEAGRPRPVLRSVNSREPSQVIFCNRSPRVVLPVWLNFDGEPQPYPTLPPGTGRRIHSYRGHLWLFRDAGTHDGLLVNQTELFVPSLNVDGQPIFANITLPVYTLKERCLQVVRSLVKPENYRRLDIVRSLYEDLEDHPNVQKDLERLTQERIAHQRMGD
T1 sequence (Q15370 whole entry partner, the tested form may be a part): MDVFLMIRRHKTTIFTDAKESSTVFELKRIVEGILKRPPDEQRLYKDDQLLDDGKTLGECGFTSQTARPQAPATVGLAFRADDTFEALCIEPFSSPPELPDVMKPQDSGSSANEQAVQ
T1 sequence (Q15369 whole entry partner, the tested form may be a part): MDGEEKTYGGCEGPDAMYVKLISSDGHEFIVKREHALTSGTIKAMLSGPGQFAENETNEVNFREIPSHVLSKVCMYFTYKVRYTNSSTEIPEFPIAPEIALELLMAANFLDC

Turning to `COc1cc2c(Oc3ccc(NC(=O)C4(C(=O)Nc5ccc(F)cc5)CC4)cc3F)ccnc2cc1OCCOCCOCCOc1cc(-c2scnc2C)ccc1CNC(=O)[C@@H]1C[C@@H](O)CN1C(=O)[C@H](C(C)C)N1Cc2ccccc2C1=O` [compound 46], the “pull-down of purified p38δ on GST-VBC-coated beads” value is on record as “slightly greater ternary complex pull-down efficiency”.
Next, `COc1cc2c(Oc3ccc(NC(=O)C4(C(=O)Nc5ccc(F)cc5)CC4)cc3F)ccnc2cc1OCCCCOCCCCOCC(=O)N[C@H](C(=O)N1C[C@H](O)C[C@H]1C(=O)NCc1ccc(-c2scnc2C)cc1)C(C)(C)C` [compound 50, N-(3-fluoro-4-((7-(4-(4-(2-(((S)-1-((2S,4R)-4-hydroxy-2-((4-(4-methylthiazol-5-yl)benzyl)carbamoyl)pyrrolidin-1-yl)-3,3-dimethyl-1-oxobutan-2-yl)amino)-2-oxoethoxy)butoxy)buto-xy)-6-methoxyquinolin-4-yl)oxy)phenyl)-N-(4-fluorophenyl)cyclopropane-1,1-dicarboxa-mide]: “able to pull-down purified p38δ on GST-VBC-coated beads in a dose-dependent manner”.
